Data on 95 molecules can be found in ChEMBL document CHEMBL3507680, “University of Dundee, Gates Library screen for HepG2 cell viability”.

This data set in a line: Human HepG2 cell viability assay in 384 well format. The note with it: HepG2 cells, read-out: Inhibition. The data set is classed as toxicity, cell-based. Further details: dose 125 nL, time 70.5 hour; cytotoxicity at 70.5 h: concentration not given beside the values.
With `Cc1nc(-c2ccccc2)nc2c1CCN(Cc1nccn1C)CC2`, the cytotoxicity at 70.5 h is -10.4%.

Turning to `Cn1c2c(c(=O)n1C)CN(C(=O)c1cnccn1)CCC2`, the cytotoxicity at 70.5 h was -8.23%.

`CN(C)CC(=O)N1CCO[C@@H]2CC(COCc3ccncc3)C[C@H]21` (stereo not given in full): the cytotoxicity at 70.5 h is -8%.

For the molecule `Cn1nccc1-c1cnc2n1CCC21CCN(C(=O)C2(C)CC2)CC1`, the cytotoxicity at 70.5 h is -11%.

For the molecule `COCCN1CCN(c2cc(OC)ncn2)Cc2ccc(C)nc21`, the cytotoxicity at 70.5 h was -10.4%.

As for `O=C(Cc1ccccn1)N1C[C@H]2CN(Cc3ccccn3)C[C@H]2C1`, the cytotoxicity at 70.5 h was -10%.

As for `CC(C)N(C)Cc1cc(=O)n2c(n1)CN(C(=O)c1ccc[nH]1)CCC2`, the cytotoxicity at 70.5 h was 0.329%.

For the molecule `Cc1cccc(CN2C[C@@H]3CN(C(=O)C4CCOC4)C[C@@H]3C2=O)c1` (stereo not given in full), the cytotoxicity at 70.5 h is 2.05%.

Take `O=C(C1CCOC1)N1C[C@H]2CN(Cc3cccc(F)c3)C(=O)[C@H]2C1` (stereo not given in full): the cytotoxicity at 70.5 h is -0.77%.

Consider `Cc1cccc(CN2CCC3(CC2)COC(COCC2CC2)C3)n1` (stereo not given), for which the cytotoxicity at 70.5 h is -6.77%.

`COc1cc(N2CCN(CC3CC3)c3nc(C)ccc3C2)ncn1`: the cytotoxicity at 70.5 h is 0.313%.

On to `Cc1csc(CN2CCC3(CC2)COC(COc2ccccn2)C3)n1` (stereo not given), for which the cytotoxicity at 70.5 h is -5.82%.

As for `Cn1nccc1-c1cnc2n1CCNC21CCN(C(=O)C2(C)CC2)CC1`, the cytotoxicity at 70.5 h is -9.28%.

With `CCS(=O)(=O)N1CCc2c(COC)cncc2C1`, the cytotoxicity at 70.5 h turned out to be 17.2%.

Consider `CC(C)n1c2ccccc2c2c1cc(C(=O)N(C)C)n2S(C)(=O)=O`, for which the cytotoxicity at 70.5 h is 13.1%.

Regarding `CNC(=O)NCC1CCC2(CCN(C(=O)c3ccccc3)CC2)CO1` (stereo not given), the cytotoxicity at 70.5 h is -2.1%.

`O=C(c1ccc[nH]1)N1CCCn2c(CN3CCCCC3)nnc2C1`: the cytotoxicity at 70.5 h was -5.4%.

For `COc1cccc(N2CCN(C(=O)C(C)Oc3ccccc3)CC2=O)c1` (stereo not given), the cytotoxicity at 70.5 h was determined as 20.9%.

`Cn1nnnc1SCCNC1CCN(c2ccc3c(c2)OCO3)CC1`: the cytotoxicity at 70.5 h was found to be 4.51%.

For `CSc1ncc(CN(C)C(C)c2cccnc2)cn1` (stereo not given), the cytotoxicity at 70.5 h was -0.91%.

Turning to `N[C@H]1CN(C(=O)Cc2ccc(CO)cc2)C[C@@H]1C1CC1`, the cytotoxicity at 70.5 h came out at 34.3%.

`Cc1cncc(NC(=O)c2ccc(CN3CC[C@H](O)C3)cc2)c1`: the cytotoxicity at 70.5 h amounted to 19.1%.

As to `CCOc1ncccc1CNc1cc(COC)ncn1`, the cytotoxicity at 70.5 h was 1.28%.

For `COc1cc2nc(NCCN3CCNC3=O)cc(C)c2cc1OC`, the cytotoxicity at 70.5 h is -0.54%.

Take `CCOC(=O)C1(CCOC)CCN(Cc2nccn2CC)CC1`: the cytotoxicity at 70.5 h is -7.56%.

As for `Cc1cc(C)n(CC(C)NC(=O)C2(c3ccccc3F)CC2)n1` (stereo not given), the cytotoxicity at 70.5 h is -7.8%.

With `CC(C)Cc1nc(CN(C)c2cc(C(C)C)nc3ccnn23)no1`, the cytotoxicity at 70.5 h is -10.6%.

As to `CN(Cc1cc(C(C)(C)C)n[nH]1)C(=O)c1c[nH]nc1-c1cccc(F)c1`, the cytotoxicity at 70.5 h was -8%.

Consider `O=C(CC1CCCC1)N[C@H]1CN(Cc2c[nH]cn2)C[C@@H]1C1CC1`, for which the cytotoxicity at 70.5 h is 20.4%.

Regarding `Cc1nc(O)cc(CCNC(=O)CN2CCCCCC2)n1`, the cytotoxicity at 70.5 h amounted to 1.28%.

Regarding `COCc1nc(NC(C)c2c(C)n[nH]c2C)c2cnn(C)c2n1` (stereo not given), the cytotoxicity at 70.5 h was -5.38%.

With `Cc1cc(C(F)(F)F)nc(CNc2cc(C)nc3cc(C)nn23)n1`, the cytotoxicity at 70.5 h was -2.86%.

In the case of `CCN(Cc1nc(COC)no1)Cc1ccccc1OCC(=O)O`, the cytotoxicity at 70.5 h came to 20%.

For `Cc1ccsc1CN1CCC(c2nnc(Cn3cccn3)n2C)CC1`, the cytotoxicity at 70.5 h was -2.95%.

As for `Cc1ccc(CN2C[C@@H](C(=O)O)[C@H](c3cccnc3)C2)s1`, the cytotoxicity at 70.5 h came out at 1.41%.

`Cc1ncc(CN2CCN(C(=O)N(C)C)[C@@H]3CS(=O)(=O)C[C@@H]32)cn1`: the cytotoxicity at 70.5 h is -26.5%.

`NCC1Cc2cc(-c3cncc(C(=O)N4CCCCC4)n3)cc(F)c2O1` (stereo not given): the cytotoxicity at 70.5 h was -4.24%.

For the molecule `COCCc1noc(CN2CC(Cc3ccccc3)CC2=O)n1` (stereo not given), the cytotoxicity at 70.5 h is -20.5%.

Take `CC1(C)[C@H]2CC=C(CN3CCCn4nc(CNS(C)(=O)=O)cc4C3)[C@@H]1C2`: the cytotoxicity at 70.5 h was -8.88%.

Take `CN1CCN(S(=O)(=O)c2ccc(C(=O)N3CC[C@@H](O)C3)cc2)CC1=O`: the cytotoxicity at 70.5 h was -5.98%.

In the case of `C=C(C)COc1cccc(C(=O)N2CCC3(CCOCC3)CC2)c1`, the cytotoxicity at 70.5 h was 3.55%.

As to `CC(=O)c1ccccc1-c1cc(C(=O)O)cc(S(=O)(=O)NC(C)C)c1`, the cytotoxicity at 70.5 h was -14.9%.

`CC(C)C[C@@H](C(N)=O)n1cc(-c2cncnc2)nn1`: the cytotoxicity at 70.5 h was -8.12%.

In the case of `OCc1ccc(CN(CCCn2ccnc2)Cc2ccncc2)o1`, the cytotoxicity at 70.5 h is -4.15%.

Consider `O=C(c1cccc(-c2ccc(F)cc2)c1)N1CCCC(O)(CO)CC1` (stereo not given), for which the cytotoxicity at 70.5 h turned out to be 9.52%.

`CCC(=O)N1CCN(C(=O)c2ccc(OC)o2)[C@H]2CS(=O)(=O)C[C@H]21`: the cytotoxicity at 70.5 h was -4.25%.

As for `CN1CCN(C(=O)N2CC[C@@](O)(c3ccccc3)[C@H]3CCCC[C@@H]32)CC1`, the cytotoxicity at 70.5 h is -5.89%.

Turning to `Cc1cc(C(F)(F)F)nc(CCNc2nc(C)nc3sccc23)n1`, the cytotoxicity at 70.5 h turned out to be 15.7%.

Turning to `CN(Cc1cc(C(C)(C)C)n[nH]1)Cc1c[nH]nc1-c1ccc(F)cc1`, the cytotoxicity at 70.5 h was -4.87%.

In the case of `c1cncc(OC2CCN(CCn3cc4ccccc4n3)CC2)c1`, the cytotoxicity at 70.5 h was -25.2%.

As for `COc1ccccc1OC1CN(C(=O)Cc2c(C)nc3ccccn23)C1`, the cytotoxicity at 70.5 h is 2.44%.

On to `CN1CCCCC1Cc1nc2c(cc1C(N)=O)CCC2` (stereo not given), for which the cytotoxicity at 70.5 h turned out to be 13.7%.

Turning to `OCc1csc(N2CCCC(CO)(Cc3cccc(Cl)c3)C2)n1` (stereo not given), the cytotoxicity at 70.5 h stood at 12.4%.

As for `N#Cc1ccccc1C(=O)N1C[C@H]2CC[C@@H]1CN(c1ncccn1)C2`, the cytotoxicity at 70.5 h was determined as 18.3%.

Turning to `COc1ccc([C@@H]2CN(c3cc(OC)nc(N)n3)C[C@H]2N(C)C)cc1`, the cytotoxicity at 70.5 h is -3.33%.

For the molecule `COCc1nc(CNC2CCN(C(C)C)CC2)no1`, the cytotoxicity at 70.5 h is -8.15%.

With `CC(C)c1noc(-c2ccc(N(C)C3CCOCC3)nc2)n1`, the cytotoxicity at 70.5 h worked out at 10.8%.

As to `CN(C)C(C(=O)N1CCN(CCn2cccc2)CC1)c1ccc(F)cc1` (stereo not given), the cytotoxicity at 70.5 h is -3.42%.

Regarding `c1ccc2c(c1)CC(N1CCCC(NCc3cccc4nonc34)C1)C2` (stereo not given), the cytotoxicity at 70.5 h was -9.28%.

On to `O=C(N[C@H]1CN2CCC1CC2)c1cc(Cn2cnc3ccccc32)[nH]n1`, for which the cytotoxicity at 70.5 h is -5.02%.

For `Cc1cc(CN2CCC(c3cc(Cc4ccccc4)n[nH]3)CC2)[nH]n1`, the cytotoxicity at 70.5 h was -16.6%.

For `O=c1c2ccc(Cl)cc2ncn1CCCN1CCCCC1CO` (stereo not given), the cytotoxicity at 70.5 h was -15.5%.

Consider `N[C@H]1CN(C(=O)Cc2ccc(Cl)c(Cl)c2)C[C@@H]1C1CC1`, for which the cytotoxicity at 70.5 h was 13.6%.

As to `CCCn1c(C)c(CC(=O)NCCC(N)=O)c2c1CC(C)(C)CC2=O`, the cytotoxicity at 70.5 h was 11.1%.

Turning to `c1cc(-c2cnccn2)cc(-c2ccn(CCCN3CCCCC3)n2)c1`, the cytotoxicity at 70.5 h is -7.3%.

As for `Cc1cc(C)c2c(N(C)CC3COCCO3)ncnc2n1` (stereo not given), the cytotoxicity at 70.5 h was -8.16%.

As to `O=C(O)c1ccccc1-c1c(-c2ccccc2)ncn1CC1CCCO1` (stereo not given), the cytotoxicity at 70.5 h was found to be 17.5%.

Regarding `CN(C)c1ccc(-c2ccnc3c2ccn3C)nn1`, the cytotoxicity at 70.5 h came to 18.4%.

With `O=C1CCC2(CCN(Cc3cscn3)CC2)CN1CC1CCCO1` (stereo not given), the cytotoxicity at 70.5 h stood at 10.4%.

On to `CCc1c(C)nn(CCNC(=O)c2cnn[nH]2)c1C`, for which the cytotoxicity at 70.5 h is -5.63%.

Consider `Cc1ccccc1C1CCN(CCn2cc(-c3nccs3)nn2)C1` (stereo not given), for which the cytotoxicity at 70.5 h is 49.5%.

As for `CCc1cc(N2CCS(=O)(=O)CC2)n2nc(C)c(C)c2n1`, the cytotoxicity at 70.5 h was -5.71%.

On to `N[C@@H](Cc1c[nH]cn1)C(=O)N1CCC(Oc2ccc(Cl)cc2)CC1`, for which the cytotoxicity at 70.5 h stood at 28.2%.

Regarding `C[C@@H]1CN(Cc2cc(C3CCCCC3)no2)CC[C@]1(C)O`, the cytotoxicity at 70.5 h is -6.92%.

Turning to `N#Cc1cccc(S(=O)(=O)N2CCCCC2CCN2CCCC2)c1` (stereo not given), the cytotoxicity at 70.5 h is -3.74%.

`CS(=O)(=O)N1CC[C@]2(O)CCN(c3ccnc(N)n3)C[C@@H]2C1`: the cytotoxicity at 70.5 h is -0.327%.

On to `COCCN1CCC2(CCC1=O)CN(c1ccnc(SC)n1)CCN2C` (stereo not given), for which the cytotoxicity at 70.5 h is -4.09%.

On to `Cc1cc(CN(C)c2nc(-c3ccco3)nc3c2CCN(C)CC3)on1`, for which the cytotoxicity at 70.5 h is -22.6%.

With `CSc1ncc(C(=O)N2CCN(c3ccccc3C)CC2C)cn1` (stereo not given), the cytotoxicity at 70.5 h is -2.82%.

With `COCCC(=O)N[C@H]1CC[C@H](Nc2nccc(-c3ccncc3)n2)C1`, the cytotoxicity at 70.5 h is -6.41%.

As for `OC1CCN(C2CCN(c3ccc(Cn4ccnc4)cn3)CC2)CC1`, the cytotoxicity at 70.5 h was -17.9%.

Consider `c1cnc(NCc2cncc3c2CCN(CC2CC2)C3)nc1`, for which the cytotoxicity at 70.5 h was found to be 3.44%.

Regarding `Cc1nccc(NCc2cncc3c2CCN(CC2CC2)C3)n1`, the cytotoxicity at 70.5 h came to 9.03%.

As for `O=C(c1ccno1)N1CCO[C@@H]2CC(COCc3ccccn3)C[C@H]21` (stereo not given in full), the cytotoxicity at 70.5 h is -6.23%.

Take `O=C(C1CCC1)N1C[C@@H]2CN(Cc3ccncc3)C(=O)[C@@H]2C1`: the cytotoxicity at 70.5 h is -12.5%.

`Cc1nc(N2CCOCC2)nc2c1CCN(Cc1nccn1C)CC2`: the cytotoxicity at 70.5 h is -11.2%.

With `Cc1nc(C)c2c(n1)CCN(Cc1nccn1C)CC2`, the cytotoxicity at 70.5 h was -8.56%.

As to `CN(C)Cc1cc(=O)n2c(n1)CN(C(=O)c1ccc[nH]1)CCC2`, the cytotoxicity at 70.5 h is -2.94%.

For `CCN1CCC(c2nc3ccc(NC4CCC4)cn3n2)CC1`, the cytotoxicity at 70.5 h is -4.48%.

With `CS(=O)(=O)NCc1cc(=O)n2c(n1)CN(CC1CC1)CCC2`, the cytotoxicity at 70.5 h stood at 7.49%.

As for `CCCN1CCC(c2nc3ccc(-c4cccc(OC)c4)cn3n2)CC1`, the cytotoxicity at 70.5 h is -1.57%.

Turning to `CCCS(=O)(=O)N1CCC2(CC1)CN(CC1CCOC1)c1ccccc12` (stereo not given), the cytotoxicity at 70.5 h worked out at 3.95%.

For `COCCN1CCN(c2ccc(C)nn2)Cc2ccc(C)nc21`, the cytotoxicity at 70.5 h is -3.87%.

As for `Cn1nccc1-c1nnn2c1COCC(CNC1CCOCC1)C2` (stereo not given), the cytotoxicity at 70.5 h was 0.0787%.

As for `CCS(=O)(=O)N1CCc2c(COCCN(C)C)cncc2C1`, the cytotoxicity at 70.5 h was determined as 2.79%.
